For one assay, the system named is HL-60/ADR cells. The assay is described as follows: MTS cytotoxicity test procedure with HL-60/ADR cells. The format is cell-based, human. The note with it: for Ratio: IC50 on HL-60/ADR cells/IC50 on HL-60 cells. The text has this:
(§1) Human cancer cell lines, unless otherwise noted, are obtained from the American Type Culture Collection (Rockville, Md.). The following drug-sensitive parental cell lines, and their derived drug-resistant counterparts, are obtained from the originators as listed: (a) S1 (parental line from a subclone of human colon carcinoma line LS174T) and derived S1-M1-3.2 (herein called S1-M1) which expresses the MXR drug transporter protein, are provided by Dr. L. Greenberger, Wyeth Research (Rabindran, S. K., He, H., Singh, M., Brown, E., Collins, K. I., Annable, T., and Greenberger, L. M. Reversal of a novel multidrug resistance mechanism in human colon carcinoma cells by fumitremorgin C. Cancer Res., 58: 5850-5858,1998); (b) parental HL-60 human promyelocytic leukemia line and derived HL-60/ADR, which expresses the MRP1 drug transporter protein, are provided by Dr. M. Center, University of Kansas (McGrath, T., and Center, M. S. Adriamycin resistance in HL60 cells in the absence of detectable P-glycoprotein. Biochem. Biophys. […] J. Biol. Chem., 261: 7762-7770, 1986) via Dr. L. Greenberger, Wyeth Research.
The MTS assay, which is sold in kit form by Promega (Madison, Wis.; CellTiter 96 AQueous Non-Radioactive Cell Proliferation Assay), is based on the conversion by viable cells, but not by dead cells, of the tetrazolium salt, MTS (3-(4,5-dimethylthiazol-2-yl)-5-(3-carboxymethoxyphenyl)-2-(4-sulphophenyl)-2H-tetrazolium, inner salt), into a water-soluble colored formazan which is detected by spectrophotometry. Compounds are tested at nine concentrations, in order to determine IC50 values. For the test procedure, cells are harvested by trypsinization (or, in the case of non-adherent cells, by simple resuspension), washed, counted and distributed to wells of 96-well flat-bottom microtiter plates at 1000 cells per well in 200 μL of medium. In addition, one row of wells on a separate plate receives cells as above (“time 0” plate). All plates are incubated at 370 in humidified 5% CO2 in air for about 24 hr.
On day 2, compounds for test are diluted and added to wells. Compounds are dissolved in DMSO at 10 mg/mL. For each compound, nine serial 2-fold dilutions are prepared in DMSO. Ten μL of each dilution in DMSO is transferred to 100 μL of medium, mixed well, and then 5 μL of this dilution is transferred in quadruplicate to wells containing cells. […] Plates are returned to the incubator for three days. At the time of drug addition to the experimental plates, the MTS assay is run on the “time 0” plate.
After three days of culture with test compounds (day 5 overall), the MTS assay is done on all wells of the experimental plates. The absorbance values of the quadruplicate sample wells are averaged and divided by the average of the “time 0” values. […] The nine values for each compound are plotted against concentration, and the concentration that produces a relative color yield half way between the maximum and minimum is taken as the IC50 value.
HL-60/ADR cells overexpress the multidrug resistance protein MRP1 which mediates resistance to some chemotherapeutics (Gottesman, M. M., Fojo, T., and Bates, S. E. Multidrug resistance in cancer: role of ATP-dependent transporters. Nature Rev. Cancer, 2: 48-58, 2002). The IC50 values of example 6 of this invention, as well as reference compounds, on HL-60/ADR are compared to values on the sensitive parental HL-60 line.

Another assay relates to HL-60 cells. The assay is described as follows: MTS cytotoxicity test procedure with HL-60 cells. The format is cell-based. The note with it: Homo sapiens, MTS assay, means of 2 independent experiments. The text has this: (§2) Human cancer cell lines, unless otherwise noted, are obtained from the American Type Culture Collection (Rockville, Md.). […]
(§3) The MTS assay, which is sold in kit form by Promega (Madison, Wis.; CellTiter 96 AQueous Non-Radioactive Cell Proliferation Assay), is based on the conversion by viable cells, but not by dead cells, of the tetrazolium salt, MTS (3-(4,5-dimethylthiazol-2-yl)-5-(3-carboxymethoxyphenyl)-2-(4-sulphophenyl)-2H-tetrazolium, inner salt), into a water-soluble colored formazan which is detected by spectrophotometry. […] For the test procedure, cells are harvested by trypsinization (or, in the case of non-adherent cells, by simple resuspension), washed, counted and distributed to wells of 96-well flat-bottom microtiter plates at 1000 cells per well in 200 μL of medium. […]
(§4) After three days of culture with test compounds (day 5 overall), the MTS assay is done on all wells of the experimental plates. The absorbance values of the quadruplicate sample wells are averaged and divided by the average of the “time 0” values. […]
In general terms: Formazan colour is commonly taken as a measure of viable cells.

The test system of the next assay is KB-V1 cells. The assay is described as follows: MTS cytotoxicity test procedure with KB-V1 cells. The format is cell-based, human. As to conditions: MTS assay.
Source text: as §1
The MTS assay, which is sold in kit form by Promega (Madison, Wis.; CellTiter 96 AQueous Non-Radioactive Cell Proliferation Assay), is based on the conversion by viable cells, but not by dead cells, of the tetrazolium salt, MTS (3-(4,5-dimethylthiazol-2-yl)-5-(3-carboxymethoxyphenyl)-2-(4-sulphophenyl)-2H-tetrazolium, inner salt), into a water-soluble colored formazan which is detected by spectrophotometry. Compounds are tested at nine concentrations, in order to determine IC50 values. For the test procedure, cells are harvested by trypsinization (or, in the case of non-adherent cells, by simple resuspension), washed, counted and distributed to wells of 96-well flat-bottom microtiter plates at 1000 cells per well in 200 μL of medium. […]
as §4

For the next assay, the system named is S1 cells. Briefly: MTS cytotoxicity test procedure with S1 cells. The format is cell-based. The note with it: Homo sapiens, MTS assay, means of 2 independent experiments.
Source text: as §2, §3, §4

The subject of another assay is KB cells. The assay is described as follows: SRB cytotoxicity test procedure with KB cells. The format is cell-based. The note with it: Homo sapiens, SRB assay, means of 2 independent experiments.
Source text: as §2
The SRB standard cytotoxicity assay is done according to previously reported methods (Discafani, C. M., Carroll, M. L., Floyd Jr., M. B. F., Hollander, I. J., Husain, Z., Johnson, B. D., Kitchen, D., May, M. K., Malo, M. S., Minnick Jr., A. A., Nilakantan, R., Shen, R., Wang Y-F., Wissner, A., Greenberger, L. M. Irreversible inhibition of epidermal growth factor receptor tyrosine kinase with in vivo activity by N-[4-[3-bromophenyl)amino]-6-quinaxolinyl]-2-butynamide (CL-387,785). […] Absorbance is read on a Victor V multi-label plate reader (Perkin Elmer, Gaithersburg, Md.). […]
For orientation: Sulforhodamine B stains cellular protein and so reports cell mass.

The next assay has as its system KB-8-5 cells. Briefly: SRB cytotoxicity test procedure with KB-8-5 cells. The format is cell-based, human. As to conditions: SRB assay.
Source text: as §1
The SRB standard cytotoxicity assay is done according to previously reported methods (Discafani, C. M., Carroll, M. L., Floyd Jr., M. B. F., Hollander, I. J., Husain, Z., Johnson, B. D., Kitchen, D., May, M. K., Malo, M. S., Minnick Jr., A. A., Nilakantan, R., Shen, R., Wang Y-F., Wissner, A., Greenberger, L. M. Irreversible inhibition of epidermal growth factor receptor tyrosine kinase with in vivo activity by N-[4-[3-bromophenyl)amino]-6-quinaxolinyl]-2-butynamide (CL-387,785). Biochem. Pharmacol., 57: 917-925, 1999). Briefly, cells are plated in 100 μL of medium in 96-well flat-bottom microtiter plates in the morning of day 1 and allowed to adhere to the plates for 2-6 hr. Compounds are serially diluted into medium as 2× stocks and 100 μL of these stocks are added to cells in duplicate. Compounds are incubated with cells for 3 days. At the end of the incubation period the sulforhodamine B (SRB) assay, which measures protein content as an assessment of cell survival, is performed as described previously (Skehan, P., Storeng, R., Scudiero, D., Monks, A., McMahon, J., Vistica, D., Warren, J. T., Bokesch, H., Kenney, S., Boyd, M. R. New calorimetric cytotoxicity assay for anticancer-drug screening. J. Natl. Cancer Inst., 82:1107-1112, 1990) with some modifications. Medium is gently decanted from plates and replaced with 200 μL per well of cold serum-free medium containing a final concentration of 10% trichloroacetic acid. The plates are incubated for 1 hr at 40, washed 5 times in cold distilled water, and air-dried overnight. […] Absorbance is read on a Victor V multi-label plate reader (Perkin Elmer, Gaithersburg, Md.). […]

The term IC50 denotes the concentration that inhibits the measured activity by half. The low end stands for greater potency in that assay, the high end for weaker potency in that assay. As to `CN(C)CCCOc1cc(F)c(-c2c(Cl)nc3nccn3c2C2CCCCCC2)c(F)c1` [Example 6, 3-[4-(7-Chloro-5-cycloheptylimidazo[1,2-a]pyrimidin-6-yl)-3,5-difluorophenoxy]-N,N-dimethylpropan-1-amine], the IC50 in the assay with HL-60/ADR cells (Homo sapiens, HL60/ADR, MTS assay, HL-60/ADR cells, means of 2 independent experiments) came to 0.029 µM; in the assay with HL-60 cells, 0.053 µM; with KB-V1 cells (Homo sapiens, KB-V1, KB VI cells, means of 2 independent experiments) it was 0.204 µM; in the assay on S1 cells it was 0.063 µM. For the same compound, the values for the Ratio in the assay on HL-60/ADR cells and with HL-60/ADR cells (listed as example 6) were 0.55 and “no resistance”, respectively. In addition, the “Ratio VI/KB” value in the assay with KB-V1 cells (IC50 on KB VI cells/IC50 on KB cells) came to 4.6.
As for `CC(=O)O[C@H]1C(=O)[C@@]2(C)[C@H]([C@H](OC(=O)c3ccccc3)[C@]3(O)C[C@H](OC(=O)[C@H](O)[C@@H](NC(=O)c4ccccc4)c4ccccc4)C(C)=C1C3(C)C)[C@]1(OC(C)=O)CO[C@@H]1C[C@@H]2O` [Paclitaxel, reference compound], the IC50 in the assay on KB cells was 0.0022 µM; with KB-8-5 cells (Homo sapiens, KB 8.5 cells, means of 2 independent experiments) it was 0.034 µM. For the same compound, in the assay on KB-8-5 cells (IC50 on KB 8.5 cells/IC50 on KB cells), the “Ratio 8.5/KB” value was determined as 16.

These data come from patent publication US7285555B2, “6-aryl-7-halo-imidazo[1,2-a]pyrimidines as anticancer agents” (Wyeth Holdings Corporation, priority 2003, dated 2007).
